Source: patent US8592597B2, “Pyrrole compounds” (Takeda Pharmaceutical Company Limited, priority 2008, dated 2013)
Counter-ions that a name gives are not always drawn.

Columns and labels:
HepG2 = test: ATP content test; type: cell-based, Human; settings: HepG2, 100 μM, culture for one day, relative value to control (without drug)
Protocol: (§1) Human liver cancer-derived cell line HepG2 (ATCC No. HB-8065) was passaged using Dulbecco's Modified Eagle medium (DMEM; Invitrogen) containing 10% fetal bovine serum (FBS; TRACE SCIENTIFIC LTD.), 1 mmol/L sodium pyruvate (Invitrogen), 2 mmol/L L-glutamine (Invitrogen), 50 IU/mL penicillin (Invitrogen) and 50 μg/mL streptomycin (Invitrogen) at 5% CO2, 37° C. The test reagent was prepared with DMSO to 10 mM, and further diluted with DMEM medium containing 0.5% FBS, 1 mmol/L sodium pyruvate, 2 mmol/L L-glutamine, 50 IU/mL penicillin and 50 μg/mL streptomycin to a final concentration of DMSO of 0.1%. HepG2 (2×10^4 cells/well) was cultured on a 96 well white plate (Costar) with the test reagent at 5% CO2, 37° C. After culture for one day, the intracellular ATP content was measured using ATPLITE™ (PerkinElmer Life Sciences). The results are shown in Table 4 (n≧3, average value ±SD) as a relative value (%) to control (without addition of drug).

[1] = molecular target: T1, proton, potassium-adenosine triphosphatase (H+/K+-ATPase) (Sus scrofa, UniProt P19156); test: Proton potassium-adenosine triphosphatase (H+,K+-ATPase) inhibitory activity test; type: biochemical; settings: swine gastric mucous membrane microsomal fraction, pH 6.5, 37° C.
T1 construct: a gastric mucous membrane microsomal fraction was prepared from the stomach of swine; from tissue; host or cells: swine stomach, gastric mucous membrane microsomal fraction
Protocol: According to the method [Biochim. Biophys. Acta, 728, 31 (1983)] of Wallmark et al., a gastric mucous membrane microsomal fraction was prepared from the stomach of swine. First, the stomach was removed, washed with tap water, immersed in 3 mol/L brine, and the surface of the mucous membrane was wiped with a paper towel. The gastric mucous membrane was detached, chopped, and homogenized in a 0.25 mol/L saccharose solution (pH 6.8) containing 1 mmol/L EDTA and 10 mmol/L tris-hydrochloric acid using polytron (Kinematica). The obtained homogenate was centrifuged at 20,000×g for 30 min and the supernatant was centrifuged at 100,000×g for 90 min. The precipitate was suspended in 0.25 mol/L saccharose solution, superimposed on a 0.25 mol/L saccharose solution containing 7.5% Ficoll, and centrifuged at 100,000×g for 5 hr. The fraction containing the interface between the both layers was recovered, and centrifugally washed with 0.25 mol/L saccharose solution. The obtained microsomal fraction was used as a proton, potassium-adenosine triphosphatase standard product.
To 40 μL of a 50 mmol/L HEPES-tris buffer (5 mmol/L magnesium chloride, 10 mmol/L potassium chloride, 10 μmol/L valinomycin, pH=6.5) containing 2.5 μg/mL (based on the protein concentration) of the enzyme standard product was added a test compound (5 μL) dissolved in a 10% aqueous dimethyl sulfoxide solution, and the mixture was incubated at 37° C. for 30 min. The enzyme reaction was started by adding 5 μL of a 2 mmol/L adenosine triphosphate tris salt solution (50 mmol/L HEPES-tris buffer (5 mmol/L magnesium chloride, pH 6.5)). The enzyme reaction was carried out at 37° C. for 20 min, and 15 μL of a malachite green solution (0.12% malachite green solution in sulfuric acid (2.5 mol/L), 7.5% ammonium molybdate and 11% Tween 20 were mixed at a ratio of 100:25:2) was added to quench the reaction. After allowing to stand at room temperature for 15 min, the resulting reaction product of inorganic phosphorus with malachite green was colorimetrically determined at a wavelength of 620 nm. In addition, the amount of the inorganic phosphoric acid in the reaction solution free of potassium chloride was measured in the same manner, which was subtracted from the inorganic phosphoric acid amount in the presence of potassium chloride to determine the proton, potassium-adenosine triphosphatase activity. The inhibitory rate (%) was determined from the activity value of the control and the activity values of various concentrations of the test compound, and the 50% inhibitory concentration (IC50) of the proton, potassium-adenosine triphosphatase was determined.

[2] = tested on: Caspase-3/7 activity in HepG2 cells; test: Caspase-3/7 activity test; type: cell-based, Human; settings: HepG2, 100 μM, culture for one day, relative to maximum with Staurosporine (100%) and no reagent (0%)
Protocol: as §1
The Caspase-3/7 activity in the cells cultured for one day by a method similar to that in Experimental Example 3 was measured using CASPASE-GLO 3/7 Assay (Promega). The results are shown in Table 4 (n≧3, average value ±SD) as relative activity (%) of each reagent based on the maximum value of Caspase-3/7 activity when exposed to Staurosporine (100%), and the activity without addition of a test reagent (0%).

T1 sequence (P19156 2-1034 limits assumed): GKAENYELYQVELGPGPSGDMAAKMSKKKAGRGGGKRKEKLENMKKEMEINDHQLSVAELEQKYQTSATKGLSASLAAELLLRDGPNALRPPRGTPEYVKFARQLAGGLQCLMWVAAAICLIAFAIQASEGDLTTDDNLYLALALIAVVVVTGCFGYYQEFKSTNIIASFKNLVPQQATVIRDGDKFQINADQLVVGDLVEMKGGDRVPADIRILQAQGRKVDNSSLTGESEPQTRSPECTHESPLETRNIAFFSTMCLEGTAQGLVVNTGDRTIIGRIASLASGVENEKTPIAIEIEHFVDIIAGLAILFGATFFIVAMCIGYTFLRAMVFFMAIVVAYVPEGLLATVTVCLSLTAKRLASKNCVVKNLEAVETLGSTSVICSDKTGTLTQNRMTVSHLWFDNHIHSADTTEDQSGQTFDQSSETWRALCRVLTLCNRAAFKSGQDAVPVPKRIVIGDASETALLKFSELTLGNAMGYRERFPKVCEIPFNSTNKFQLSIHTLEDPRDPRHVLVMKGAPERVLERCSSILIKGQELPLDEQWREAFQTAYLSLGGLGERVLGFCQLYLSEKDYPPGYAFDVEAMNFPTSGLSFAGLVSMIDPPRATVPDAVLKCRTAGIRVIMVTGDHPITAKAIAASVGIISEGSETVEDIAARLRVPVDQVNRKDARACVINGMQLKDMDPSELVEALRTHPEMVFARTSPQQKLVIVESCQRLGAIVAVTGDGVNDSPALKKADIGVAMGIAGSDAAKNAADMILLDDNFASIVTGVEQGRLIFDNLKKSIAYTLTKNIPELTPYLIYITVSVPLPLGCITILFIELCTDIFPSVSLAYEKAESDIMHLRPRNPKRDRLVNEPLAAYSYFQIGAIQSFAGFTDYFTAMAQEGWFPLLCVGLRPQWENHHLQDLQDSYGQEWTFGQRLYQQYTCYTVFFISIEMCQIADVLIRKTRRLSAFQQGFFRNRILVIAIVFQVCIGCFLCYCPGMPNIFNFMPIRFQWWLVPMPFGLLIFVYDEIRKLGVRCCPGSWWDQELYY
T1 sequence (P18434 whole entry partner): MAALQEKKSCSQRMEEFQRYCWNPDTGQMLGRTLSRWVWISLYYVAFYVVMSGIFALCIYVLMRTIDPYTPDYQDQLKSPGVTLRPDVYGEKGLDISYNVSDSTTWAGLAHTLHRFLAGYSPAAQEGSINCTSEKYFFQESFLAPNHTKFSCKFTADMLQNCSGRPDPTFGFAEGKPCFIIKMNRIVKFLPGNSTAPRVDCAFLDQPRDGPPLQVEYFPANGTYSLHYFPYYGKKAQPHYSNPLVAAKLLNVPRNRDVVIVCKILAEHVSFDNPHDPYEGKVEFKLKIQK

SMILES | ATP content (%, 100 μM) (HepG2) [%] | IC50 [1] [nM] | Caspase-3/7 activity (%, 100 μM) [2] [%]
CNCc1cn(S(=O)(=O)c2cc(C)ccn2)c(-c2cccnc2F)c1F [Example 2, 1-{4-Fluoro-5-(2-fluoropyridin-3-yl)-1-[(4-methylpyridin-2-yl)sulfonyl]-1H-pyrrol-3-yl}-N-methylmethanamine hydrochloride] | 85.5 | 100 | −1.1
CNCc1cn(S(=O)(=O)c2ccc(F)cn2)c(-c2cccnc2F)c1F [Example 3, 1-{4-Fluoro-5-(2-fluoropyridin-3-yl)-1-[(5-fluoropyridin-2-yl)sulfonyl]-1H-pyrrol-3-yl}-N-methylmethanamine hydrochloride] | 86.5 | 100 | −0.5
CNCc1cn(S(=O)(=O)c2ccc(C)nc2)c(-c2cccnc2F)c1F [Example 8, 1-{4-Fluoro-5-(2-fluoropyridin-3-yl)-1-[(6-methylpyridin-3-yl)sulfonyl]-1H-pyrrol-3-yl}-N-methylmethanamine 0.5 fumarate] | 76.7 | 180 | 2.4
CNCc1cn(S(=O)(=O)c2cc(OC)ccn2)c(-c2cccnc2F)c1F [Example 4, 1-{4-Fluoro-5-(2-fluoropyridin-3-yl)-1-[(4-methoxypyridin-2-yl)sulfonyl]-1H-pyrrol-3-yl}-N-methylmethanamine hydrochloride] | 84.5 | 140 | −0.6
CNCc1cn(S(=O)(=O)c2cncc(F)c2)c(-c2cccnc2F)c1F [Example 5, 1-{4-Fluoro-5-(2-fluoropyridin-3-yl)-1-[(5-fluoropyridin-3-yl)sulfonyl]-1H-pyrrol-3-yl}-N-methylmethanamine hydrochloride] | 88.9 | 200 | 0.3

Other lines, results leading:

ATP content (%, 100 μM) (HepG2) [%] | IC50 [1] [nM] | Caspase-3/7 activity (%, 100 μM) [2] [%] | SMILES
80.0 | 280 | 0.9 | CNCc1cn(S(=O)(=O)c2ccc(OC)cn2)c(-c2cccnc2F)c1F [Example 10, 1-{4-Fluoro-5-(2-fluoropyridin-3-yl)-1-[(5-methoxypyridin-2-yl)sulfonyl]-1H-pyrrol-3-yl}-N-methylmethanamine hydrochloride]
– | 83 | – | CNCc1cn(S(=O)(=O)c2cc(C)ccn2)c(-c2cccnc2F)c1F [Example 23, 1-{4-Fluoro-5-(2-fluoropyridin-3-yl)-1-[(4-methylpyridin-2-yl)sulfonyl]-1H-pyrrol-3-yl}-N-methylmethanamine fumarate]
– | 130 | – | CNCc1cn(S(=O)(=O)c2cncc(F)c2)c(-c2cccnc2F)c1F [Example 26, 1-{4-Fluoro-5-(2-fluoropyridin-3-yl)-1-[(5-fluoropyridin-3-yl)sulfonyl]-1H-pyrrol-3-yl}-N-methylmethanamine succinate]
– | 200 | – | CNCc1cn(S(=O)(=O)c2cncc(F)c2)c(-c2cccnc2F)c1F [Example 25, 1-{4-Fluoro-5-(2-fluoropyridin-3-yl)-1-[(5-fluoropyridin-3-yl)sulfonyl]-1H-pyrrol-3-yl}-N-methylmethanamine 0.5 fumarate]
– | 160 | – | CNCc1cn(S(=O)(=O)c2cncc(F)c2)c(-c2cccnc2F)c1F [Example 27, 1-{4-Fluoro-5-(2-fluoropyridin-3-yl)-1-[(5-fluoropyridin-3-yl)sulfonyl]-1H-pyrrol-3-yl}-N-methylmethanamine L-tartrate]
– | 140 | – | CNCc1cn(S(=O)(=O)c2cc(C)ccn2)c(-c2cccnc2F)c1F [Example 24, 1-{4-Fluoro-5-(2-fluoropyridin-3-yl)-1-[(4-methylpyridin-2-yl)sulfonyl]-1H-pyrrol-3-yl}-N-methylmethanamine succinate]
